From patent publication US9365562B2, “1,3 substituted azetidine PDE10 inhibitors” (Merck Sharp & Dohme Corp., priority 2011, dated 2016)

Target: human PDE10A2 (Homo sapiens (Human), UniProt Q9Y233)
Experiment: PDE10 fluorescence polarization (IMAP FP) inhibition assay
Assay type: biochemical
Settings: apparent inhibition constant, FAM-labeled cAMP substrate 50 nM, room temperature
Description: The activity of the compounds in accordance with the present invention as PDE10 inhibitors may be readily determined without undue experimentation using a fluorescence polarization (FP) methodology that is well known in the art (Huang, W., et al., J. Biomol Screen, 2002, 7: 215).
In a typical experiment the PDE10 inhibitory activity of the compounds of the present invention was determined in accordance with the following experimental method. PDE10A2 was amplified from human fetal brain cDNA (Clontech, Mountain View, Calif.) using a forward primer corresponding to nucleotides 56-77 of human PDE10A2 (Accession No. AF127480, Genbank Identifier 4894716), containing a Kozak consensus sequence, and a reverse primer corresponding to nucleotides 2406-2413 of human PDE10A2 (Accession No. AF127480, Genbank Identifier 4894716). Amplification with Easy-A polymerase (Stratagene, La Jolla, Calif.) was 95° C. for 2 minutes followed by thirty three cycles of 95° C. for 40 seconds, 55° C. for 30 seconds, and 72° C. for 2 minutes 48 seconds. Final extension was 72° C. for 7 minutes. The PCR product was TA cloned into pcDNA3.2-TOPO (Invitrogen, Carlsbad, Calif.) according to standard protocol. AD293 cells with 70-80% confluency were transiently transfected with human PDE10A2/pcDNA3.2-TOPO using Lipofectamine 2000 according to manufacturer specifications (Invitrogen, Carlsbad, Calif.). Cells were harvested 48 hours post-transfection and lysed by sonication (setting 3, 10×5 sec pulses) in a buffer containing 20 mM HEPES, 1 mM EDTA and protease inhibitor cocktail (Roche). Lysate was collected by centrifugation at 75,000×g for 20 minutes. Supernatant containing the cytoplasmic fraction was used for evaluation of PDE10A2 activity. The fluorescence polarization assay for cyclic nucleotide phosphodiesterases was performed using an IMAP® FP kit supplied by Molecular Devices, Sunnyvale, Calif. (product # R8139). IMAP® technology has been applied previously to phosphodiesterase assays (Huang, W., et al., J. Biomol Screen, 2002, 7: 215). Assays were performed at room temperature in 384-well microtiter plates with an incubation volume of 20.2 μL. Solutions of test compounds were prepared in DMSO and serially diluted with DMSO to yield 8 μL of each of 10 solutions differing by 3-fold in concentration, at 32 serial dilutions per plate. 100% inhibition is determined using a known PDE10 inhibitor, which can be any compound that is present at 5,000 times its Ki value in the assay described as follows, such as papaverine (see Siuciak, et al. Neuropharmacology (2006) 51:386-396; Becker, et al. Behav Brain Res (2008) 186(2):155-60; Threlfell, et al., J Pharmacol Exp Ther (2009) 328(3):785-795), 2-{4-[pyridin-4-yl-1-(2,2,2-trifluoroethyl)-1H-pyrazol-3-yl]phenoxymethyl}quinoline succinic acid or 2-[4-(1-methyl-4-pyridin-4-yl-1H-pyrazol-3-yl)-phenoxymethyl]quinoline succinic acid (see Schmidt, et al. J Pharmacol Exp Ther (2008) 325:681-690; Threlfell, et al., J Pharmacol Exp Ther (2009) 328(3): 785-795). 0% of inhibition is determined by using DMSO (1% final concentrations). A Labcyte Echo 555 (Labcyte, Sunnyvale, Calif.) is used to dispense […] from each well of the titration plate to the 384 well assay plate. A solution of enzyme (1/7000 dilution from aliquots; sufficient to produce 20% substrate conversion) and a separate solution of FAM-labeled cAMP PDE from Molecular Devices (product # R7506), at a final concentration of 50 nM are made in the assay buffer (10 mM Tris HCl, pH 7.2, 10 mM MgCl2, 0.05% NaN3 0.01% Tween-20, and 1 mM DTT). The enzyme is added to the assay plates by the addition of 10 μL of enzyme solution to each well, shaken to mix and incubated at room temperature for 60 minutes. The substrate is then added to the assay plates by the addition of 10 μL of substrate solution to each well, shaken to mix, and incubated at room temperature for 60 minutes. […]

Chain of human PDE10A2 (Q9Y233 267-1055): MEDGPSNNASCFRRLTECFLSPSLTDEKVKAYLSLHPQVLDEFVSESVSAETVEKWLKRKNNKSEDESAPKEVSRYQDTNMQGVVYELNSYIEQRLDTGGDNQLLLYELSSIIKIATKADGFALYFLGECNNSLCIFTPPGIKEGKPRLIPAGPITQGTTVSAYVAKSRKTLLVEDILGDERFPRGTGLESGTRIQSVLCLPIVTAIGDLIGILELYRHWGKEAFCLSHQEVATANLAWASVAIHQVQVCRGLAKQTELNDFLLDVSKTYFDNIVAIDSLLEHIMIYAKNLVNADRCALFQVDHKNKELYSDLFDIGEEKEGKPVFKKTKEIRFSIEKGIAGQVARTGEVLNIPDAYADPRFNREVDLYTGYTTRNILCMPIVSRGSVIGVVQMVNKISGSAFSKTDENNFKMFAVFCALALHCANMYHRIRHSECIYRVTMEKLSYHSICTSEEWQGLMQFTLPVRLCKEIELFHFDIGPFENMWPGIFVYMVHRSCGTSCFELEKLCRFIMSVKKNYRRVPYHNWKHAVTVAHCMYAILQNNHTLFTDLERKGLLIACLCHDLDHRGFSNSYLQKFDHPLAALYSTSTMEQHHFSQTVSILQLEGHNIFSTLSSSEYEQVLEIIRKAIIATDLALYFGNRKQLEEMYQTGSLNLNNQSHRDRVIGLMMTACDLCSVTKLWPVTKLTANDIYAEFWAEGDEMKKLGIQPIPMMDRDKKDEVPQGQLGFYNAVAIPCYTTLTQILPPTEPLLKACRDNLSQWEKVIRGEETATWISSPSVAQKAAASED

Row | Compound | Ki
1 | 1-(1-{2-methoxy-6-3-(1-methyl-1H-benzimidazol-2-yl)azetidin-1-yl]pyrimidin-4-yl}-1H-pyrazol-4-yl)ethanol [Example 20] | 37 nM
2 | Cc1nc(N2CC(c3nc4ccccc4n3C)C2)cc(-n2nc(C)nc2C)n1 [Example 1, 2-(1-(6-(3,5-dimethyl-1H-1,2,4-triazol-1-yl)-2-methylpyrimidin-4-yl)azetidin-3-yl)-1-methyl-1H-benzo[d]imidazole] | 2.1 nM
3 | Cc1cnn(-c2cc(N3CC(c4nc5ccccc5n4C)C3)nc(C)n2)c1 [Example 2, 1-methyl-2-(1-(2-methyl-6-(4-methyl-1H-pyrazol-1-yl)pyrimidin-4-yl)azetidin-3-yl)-1H-benzo[d]imidazole] | 0.61 nM
4 | Cc1nc(N2CC(c3nc4ccccc4n3C)C2)cc(-n2cccn2)n1 [Example 3, 1-methyl-2-(1-(2-methyl-6-(1H-pyrazol-1-yl)pyrimidin-4-yl)azetidin-3-yl)-1H-benzo[d]imidazole] | 2.5 nM
5 | COc1nc(N2CC(c3nc4ccccc4n3C)C2)cc(-n2cc(C)cn2)n1 [Example 4, 2-(1-(2-methoxy-6-(4-methyl-1H-pyrazol-1-yl)pyrimidin-4-yl)azetidin-3-yl)-1-methyl-1H-benzo[d]imidazole] | 0.82 nM
6 | Cc1cnn(-c2cc(N3CC(c4nc5ccccc5n4C)C3)nc(C(F)(F)F)n2)c1 [Example 5, 1-methyl-2-(1-(6-(4-methyl-1H-pyrazol-1-yl)-2-(trifluoromethyl)pyrimidin-4-yl)azetidin-3-yl)-1H-benzo[d]imidazole] | 1.2 nM
7 | Cc1cnn(-c2cc(N3CC(c4nc5ccccc5n4C)C3)nc(C3CC3)n2)c1 [Example 6, 2-(1-(2-cyclopropyl-6-(4-methyl-1H-pyrazol-1-yl)pyrimidin-4-yl)azetidin-3-yl)-1-methyl-1H-benzo[d]imidazole] | 0.53 nM
8 | Cc1cc(C)n(-c2cc(N3CC(c4nc5ccccc5n4C)C3)nc(C)n2)n1 [Example 7, 2-(1-(6-(3,5-dimethyl-1H-pyrazol-1-yl)-2-methylpyrimidin-4-yl)azetidin-3-yl)-1-methyl-1H-benzo[d]imidazole] | 8.6 nM
9 | Cc1nc(N2CC(c3nc4ccccc4n3C)C2)cc(-n2cc(C)c(C)n2)n1 [Example 8, 2-(1-(6-(3,4-dimethyl-1H-pyrazol-1-yl)-2-methylpyrimidin-4-yl)azetidin-3-yl)-1-methyl-1H-benzo[d]imidazole] | 0.63 nM
10 | Cc1nc(N2CC(c3nc4ccccc4n3C)C2)cc(-n2nc(C)c(C)c2C)n1 [Example 9, 1-methyl-2-(1-(2-methyl-6-(3,4,5-trimethyl-1H-pyrazol-1-yl)pyrimidin-4-yl)azetidin-3-yl)-1H-benzo[d]imidazole] | 0.93 nM
11 | Cc1cc(C(F)(F)F)n(-c2cc(N3CC(c4nc5ccccc5n4C)C3)nc(C)n2)n1 [Example 10, 1-methyl-2-(1-(2-methyl-6-(3-methyl-5-(trifluoromethyl)-1H-pyrazol-1-yl)pyrimidin-4-yl)azetidin-3-yl)-1H-benzo[d]imidazole] | 4 nM
12 | Cc1nc(N2CC(c3nc4ccccc4n3C)C2)cc(-n2ccc(C(F)(F)F)n2)n1 [Example 11, 1-methyl-2-(1-(2-methyl-6-(3-(trifluoromethyl)-1H-pyrazol-1-yl)pyrimidin-4-yl)azetidin-3-yl)-1H-benzo[d]imidazole] | 0.76 nM
13 | COc1ccn(-c2cc(N3CC(c4nc5ccccc5n4C)C3)nc(C)n2)n1 [Example 12, 2-(1-(6-(3-methoxy-1H-pyrazol-1-yl)-2-methylpyrimidin-4-yl)azetidin-3-yl)-1-methyl-1H-benzo[d]imidazole] | 4.7 nM
14 | Cc1nc(N2CC(c3nc4ccccc4n3C)C2)cc(-n2ccc(C3CC3)n2)n1 [Example 13, 2-(1-(6-(3-cyclopropyl-1H-pyrazol-1-yl)-2-methylpyrimidin-4-yl)azetidin-3-yl)-1-methyl-1H-benzo[d]imidazole] | 0.74 nM
15 | Cc1nc(N2CC(c3nc4ccccc4n3C)C2)cc(-n2ccc(C(C)C)n2)n1 [Example 14, 2-(1-(6-(3-isopropyl-1H-pyrazol-1-yl)-2-methylpyrimidin-4-yl)azetidin-3-yl)-1-methyl-1H-benzo[d]imidazole] | 0.65 nM
16 | CCc1cnn(-c2cc(N3CC(c4nc5ccccc5n4C)C3)nc(C)n2)c1 [Example 15, 2-(1-(6-(4-ethyl-1H-pyrazol-1-yl)-2-methylpyrimidin-4-yl)azetidin-3-yl)-1-methyl-1H-benzo[d]imidazole] | 3.4 nM
17 | Cc1nc(N2CC(c3nc4ccccc4n3C)C2)cc(-n2cc(C(F)(F)F)cn2)n1 [Example 16, 1-methyl-2-(1-(2-methyl-6-(4-(trifluoromethyl)-1H-pyrazol-1-yl)pyrimidin-4-yl)azetidin-3-yl)-1H-benzo[d]imidazole] | 2.7 nM
18 | Cc1nc(N2CC(c3nc4ccccc4n3C)C2)cc(-n2cc(C#N)cn2)n1 [Example 17, 1-(2-methyl-6-(3-(1-methyl-1H-benzo[d]imidazol-2-yl)azetidin-1-yl)pyrimidin-4-yl)-1H-pyrazole-4-carbonitrile] | 4.2 nM
19 | COc1cnn(-c2cc(N3CC(c4nc5ccccc5n4C)C3)nc(C)n2)c1 [Example 18, 2-(1-(6-(4-methoxy-1H-pyrazol-1-yl)-2-methylpyrimidin-4-yl)azetidin-3-yl)-1-methyl-1H-benzo[d]imidazole] | 3.2 nM
20 | Cc1nc(N2CC(c3nc4ccccc4n3C)C2)cc(-n2cc(CO)cn2)n1 [Example 19, (1-(2-methyl-6-(3-(1-methyl-1H-benzo[d]imidazol-2-yl)azetidin-1-yl)pyrimidin 4-yl)-1H-pyrazol-4-yl)methanol] | 8.3 nM
21 | Cc1nc(N2CC(c3nc4ccccc4n3C)C2)cc(-n2nc(C(F)(F)F)nc2C)n1 [Example 21, 1-methyl-2-(1-(2-methyl-6-(5-methyl-3-(trifluoromethyl)-1H-1,2,4-triazol-1-yl)pyrimidin-4-yl)azetidin-3-yl)-1H-benzo[d]imidazole] | 7 nM
22 | CCc1nc(CC)n(-c2cc(N3CC(c4nc5ccccc5n4C)C3)nc(C)n2)n1 [Example 22, 2-(1-(6-(3,5-diethyl-1H-1,2,4-triazol-1-yl)-2-methylpyrimidin-4-yl)azetidin-3-yl)-1-methyl-1H-benzo[d]imidazole] | 3.3 nM
23 | CSc1nc(N2CC(c3nc4ccccc4n3C)C2)cc(-n2nc(C)nc2C)n1 [Example 23, 2-(1-(6-(3,5-dimethyl-1H-1,2,4-triazol-1-yl)-2-(methylthio)pyrimidin-4-yl)azetidin-3-yl)-1-methyl-1H-benzo[d]imidazole] | 0.2 nM
24 | COC(=O)c1nc(N2CC(c3nc4ccccc4n3C)C2)cc(-n2nc(C)nc2C)n1 [Example 24, methyl 4-(3,5-dimethyl-1H-1,2,4-triazol-1-yl)-6-(3-(1-methyl-1H-benzo[d]imidazol-2-yl)azetidin-1-yl)pyrimidine-2-carboxylate] | 1.8 nM
25 | Cc1nc(C)n(-c2cc(N3CC(c4nc5ccccc5n4C)C3)nc(CC#N)n2)n1 [Example 25, 2-(4-(3,5-dimethyl-1H-1,2,4-triazol-1-yl)-6-(3-(1-methyl-1H-benzo[d]imidazol-2-yl)azetidin-1-yl)pyrimidin-2-yl)acetonitrile] | 1.3 nM
26 | CCOC(=O)Cc1nc(N2CC(c3nc4ccccc4n3C)C2)cc(-n2nc(C)nc2C)n1 [Example 26, ethyl 2-(4-(3,5-dimethyl-1H-1,2,4-triazol-1-yl)-6-(3-(1-methyl-1H-benzo[d]imidazol-2-yl)azetidin-1-yl)pyrimidin-2-yl)acetate] | 3.1 nM
